Laboratory results: patent US9963464B2, “Macrocyclic compounds” (Bayer Pharma Aktiengesellschaft, priority 2014, dated 2018)

Biological target: T1, CDK2/CycE (Homo sapiens, UniProt P24941)
T1 construct: GST; purchased ProQinase GmbH (Freiburg, Germany); host or cells: insect cells (Sf9)
Experiment: CDK2/CycE high ATP kinase assay (TR-FRET, Method 2b)
Type: biochemical
Details: 2 mM ATP
Procedure: 2b. CDK2/CycE High ATP Kinase Assay:
CDK2/CycE-inhibitory activity of compounds of the present invention at 2 mM adenosine-tri-phosphate (ATP) was quantified employing the CDK2/CycE TR-FRET (TR-FRET=Time Resolved Fluorescence Resonance Energy Transfer) assay as described in the following paragraphs.
Recombinant fusion proteins of GST and human CDK2 and of GST and human CycE, expressed in insect cells (Sf9) and purified by Glutathion-Sepharose affinity chromatography, were purchase from ProQinase GmbH (Freiburg, Germany). As substrate for the kinase reaction biotinylated peptide biotin-Ttds-YISPLKSPYKISEG (C-terminus in amid form) was used which can be purchased e.g. from the company JERINI peptide technologies (Berlin, Germany).
For the assay 50 nl of a 100 fold concentrated solution of the test compound in DMSO was pipetted into a black low volume 384 well microtiter plate (Greiner Bio-One, Frickenhausen, Germany), 2 μl of a solution of CDK2/CycE in aqueous assay buffer [50 mM Tris/HCl pH 8.0, 10 mM MgCl2, 1.0 mM dithiothreitol, 0.1 mM sodium ortho-vanadate, 0.01% (v/v) Nonidet-P40 (Sigma)] were added and the mixture was incubated for 15 min at 22° C. to allow pre-binding of the test compounds to the enzyme before the start of the kinase reaction. […] The concentration of CDK2/CycE was adjusted depending of the activity of the enzyme lot and was chosen appropriate to have the assay in the linear range, typical concentrations were in the range of 15 ng/ml. The reaction was stopped by the addition of 5 μl of a solution of TR-FRET detection reagents (0.2 μM streptavidine-XL665 [Cisbio Bioassays, Codolet, France] and 1 nM anti-RB(pSer807/pSer811)-antibody from BD Pharmingen [#558389] and 1.2 nM LANCE EU-W1024 labeled anti-mouse IgG antibody [Perkin-Elmer, product no. AD0077, as an alternative a Terbium-cryptate-labeled anti-mouse IgG antibody from Cisbio Bioassays can be used]) in an aqueous EDTA-solution (100 mM EDTA, 0.2% (w/v) bovine serum albumin in 100 mM HEPES pH 7.5).
The resulting mixture was incubated 1 h at 22° C. to allow the formation of complex between the phosphorylated biotinylated peptide and the detection reagents. Subsequently the amount of phosphorylated substrate was evaluated by measurement of the resonance energy transfer from the Eu-chelate to the streptavidine-XL. Therefore, the fluorescence emissions at 620 nm and 665 nm after excitation at 350 nm were measured in a TR-FRET reader, e.g. a Rubystar (BMG Labtechnologies, Offenburg, Germany) or a Viewlux (Perkin-Elmer). The ratio of the emissions at 665 nm and at […] was taken as the measure for the amount of phosphorylated substrate. The data were normalised (enzyme reaction without inhibitor=0% inhibition, all other assay components but no enzyme=100% inhibition).

Compound	IC50 [nM]
CCOC(=O)N=S(C)(=O)Cc1cc2nc(c1)OCCCOc1cc(F)ccc1-c1cc(ncc1F)N2 (racemic) [Example 20, (rac)-ethyl [{[15,19-difluoro-3,4-dihydro-2H,11H-10,6-(azeno)-12,16-(metheno)-1,5,11,13-benzodioxadiazacyclooctadecin-8-yl]methyl}(methyl)oxido-λ^6-sulfanylidene]carbamate]	44.6
CCNC(=O)N=S(C)(=O)Cc1cc2nc(c1)OCCCOc1cc(F)ccc1-c1cc(ncc1F)N2 (racemic) [Example 17, (rac)-1-[{[15,19-difluoro-3,4-dihydro-2H,11H-10,6-(azeno)-12,16-(metheno)-1,5,11,13-benzodioxadiazacyclooctadecin-8-yl]methyl}(methyl)oxido-λ^6-sulfanylidene]-3-ethylurea]	35.9
CS(=O)(Cc1cc2nc(c1)OCCCOc1cc(F)ccc1-c1cc(ncc1F)N2)=NC(=O)OCCCl (racemic) [Example 21, (rac)-2-chloroethyl [{[15,19-difluoro-3,4-dihydro-2H,11H-10,6-(azeno)-12,16-(metheno)-1,5,11,13-benzodioxadiazacyclooctadecin-8-yl]methyl}(methyl)oxido-λ^6-sulfanylidene]carbamate]	74.8
CSCc1cc2nc(c1)OCCCOc1cc(F)ccc1-c1cc(ncc1F)N2 [Example 3, 15,19-Difluoro-8-[(methylsulfanyl)methyl]-3,4-dihydro-2H,11H-10,6-(azeno)-12,16-(metheno)-1,5,11,13-benzodioxadiazacyclooctadecine]	128
CS(=O)(=O)Cc1cc2nc(c1)OCCCOc1cc(F)ccc1-c1cc(ncc1F)N2 [Example 8, 15,19-difluoro-8-[(methylsulfonyl)methyl]-3,4-dihydro-2H,11H-10,6-(azeno)-12,16-(metheno)-1,5,11,13-benzodioxadiazacyclooctadecine]	33.6
CS(=O)(Cc1cc2nc(c1)OCCCOc1cc(F)ccc1-c1cc(ncc1F)N2)=NC(=O)OCCN (racemic) [Example 25, (rac)-2-aminoethyl [{[15,19-difluoro-3,4-dihydro-2H,11H-10,6-(azeno)-12,16-(metheno)-1,5,11,13-benzodioxadiazacyclooctadecin-8-yl]methyl}(methyl)oxido-λ^6-sulfanylidene]carbamate]	18
CN=S(C)(=O)Cc1cc2nc(c1)OCCCOc1cc(F)ccc1-c1cc(ncc1F)N2 (racemic) [Example 19, (rac)-8-[(N,S-dimethylsulfonimidoyl)methyl]-15,19-difluoro-3,4-dihydro-2H,11H-10,6-(azeno)-12,16-(metheno)-1,5,11,13-benzodioxadiazacyclooctadecine]	159
CSCc1cc2cc(c1)OCCCOc1cc(F)ccc1-c1nc(ncc1F)N2 [Example 2, 15,19-Difluoro-8-[(methylsulfanyl)methyl]-3,4-dihydro-2H,11H-12,16-(azeno)-10,6-(metheno)-1,5,11,13-benzodioxadiazacyclooctadecine]	640
({[15,19-difluoro-3,4-dihydro-2H,11H-10,6-(azeno)-12,16-(metheno)-1,5,11,13-benzodioxadiazacyclooctadecin-8-yl]methyl}sulfonyl)acetic acid [Example 27]	6.3
CC(=O)N=S(C)(=O)Cc1cc2nc(c1)OCCCOc1cc(F)ccc1-c1cc(ncc1F)N2 (racemic) [Example 18, (rac)-N-[{[15,19-difluoro-3,4-dihydro-2H,11H-10,6-(azeno)-12,16-(metheno)-1,5,11,13-benzodioxadiazacyclooctadecin-8-yl]methyl}(methyl)oxido-λ^6-sulfanylidene]acetamide]	63.2
CS(=O)(Cc1cc2nc(c1)OCCCOc1cc(F)ccc1-c1cc(ncc1F)N2)=NS(=O)(=O)CCN.O=C(O)C(F)(F)F (racemic) [Example 24, (rac)-2-{[{[15,19-difluoro-3,4-dihydro-2H,11H-10,6-(azeno)-12,16-(metheno)-1,5,11,13-benzodioxadiazacyclooctadecin-8-yl]methyl}(methyl)oxido-λ^6-sulfanylidene]sulfamoyl}ethanaminium trifluoroacetate]	166
CS(=O)(=O)N=S(C)(=O)Cc1cc2nc(c1)OCCCOc1cc(F)ccc1-c1cc(ncc1F)N2 (racemic) [Example 22, (rac)-N-[{[15,19-difluoro-3,4-dihydro-2H,11H-10,6-(azeno)-12,16-(metheno)-1,5,11,13-benzodioxadiazacyclooctadecin-8-yl]methyl}(methyl)oxido-λ^6-sulfanylidene]methanesulfonamide]	195
NCCS(=O)(=O)Cc1cc2nc(c1)OCCCOc1cc(F)ccc1-c1cc(ncc1F)N2 [Example 26, 2-({[15,19-difluoro-3,4-dihydro-2H,11H-10,6-(azeno)-12,16-(metheno)-1,5,11,13-benzodioxadiazacyclooctadecin-8-yl]methyl}sulfonyl)ethanamine]	43.7
CS(=O)(Cc1cc2nc(c1)OCCCOc1cc(F)ccc1-c1cc(ncc1F)N2)=NS(=O)(=O)CCN (racemic) [Example 23, (rac)-2-amino-N-[{[15,19-difluoro-3,4-dihydro-2H,11H-10,6-(azeno)-12,16-(metheno)-1,5,11,13-benzodioxadiazacyclooctadecin-8-yl]methyl}(methyl)oxido-λ^6-sulfanylidene]ethanesulfonamide]	272
CSCc1cc2nc(c1)OCCOc1cc(F)ccc1-c1cc(ncc1F)N2 [Example 9, 14,18-Difluoro-7-[(methylsulfanyl)methyl]-2,3-dihydro-10H-9,5-(azeno)-11,15-(metheno)-1,4,10,12-benzodioxadiazacycloheptadecine]	> 20000

Test system: B16F10 cells
Experiment: Proliferation assay B16F10
Type: cell-based, mouse
Details: Mus musculus, B16-F10, 96 h; 4 days, crystal violet; read-out: Inhibition of B16F10 cell proliferation IC50
Procedure: Cultivated tumour cells (HeLa, human cervical tumour cells, ATCC CCL-2; NCI-H460, human non-small cell lung carcinoma cells, ATCC HTB-177; A2780, human ovarian carcinoma cells, ECACC #93112519; DU 145, hormone-independent human prostate carcinoma cells, ATCC HTB-81; HeLa-MaTu-ADR, multidrug-resistant human cervical carcinoma cells, EPO-GmbH Berlin; Caco-2, human colorectal carcinoma cells, ATCC HTB-37; B16F10, mouse melanoma cells, ATCC CRL-6475) were plated at a density of 5,000 cells/well (DU145, HeLa-MaTu-ADR), 3,000 cells/well (NCI-H460, HeLa), 2,500 cells/well (A2780), 1,500 cells/well (Caco-2), or 1,000 cells/well (B16F10) in a 96-well multititer plate in 200 μL of their respective growth medium supplemented 10% fetal calf serum. After 24 hours, the cells of one plate (zero-point plate) were stained with crystal violet (see below), while the medium of the other plates was replaced by fresh culture medium (200 μl), to which the test substances were added in various concentrations (0 μM, as well as in the range of 0.001-10 μM). The cells were incubated for 4 days in the presence of test substances. Cell proliferation was determined by staining the cells with crystal violet: the cells were fixed by adding 20 μl/measuring point of an 11% glutaric aldehyde solution for 15 minutes at room temperature. After three washing cycles of the fixed cells with water, the plates were dried at room temperature. The cells were stained by adding 100 μl/measuring point of a 0.1% crystal violet solution (pH 3.0). After three washing cycles of the stained cells with water, the plates were dried at room temperature. The dye was dissolved by adding 100 μl/measuring point of a 10% acetic acid solution. The extinction was determined by photometry at a wavelength of 595 nm. The change of cell number, in percent, was calculated by normalization of the measured values to the extinction values of the zero-point plate (=0%) and the extinction of the untreated (0 μm) cells (=100%). The IC50 values (inhibitory concentration at 50% of maximal effect) were determined by means of a 4 parameter fit. Non-adherent MOLM-13 human acute myeloid leukemia cells (DSMZ ACC 554) were seeded at a density of 5,000 cells/well in a 96-well multititer plate in 100 μL of growth medium supplemented 10% fetal calf serum. After 24 hours, cell viability of one plate (zero-point plate) was determined with the Cell Titre-Glo Luminescent Cell Viability Assay (Promega), while 50 μL of test compound containing medium was added to the wells of the other plates (final concentrations in the range of 0.001-1 μM and DMSO controls). Cell viability was assessed after 72-hour exposure with the Cell Titre-Glo Luminescent Cell Viability Assay (Promega). IC50 values (inhibitory concentration at 50% of maximal effect) were determined by means of a 4 parameter fit on measurement data which were normalized to vehicle (DMSO) treated cells (=100%) and measurement readings taken immediately before compound exposure (=0%).

Compound	IC50 [nM]
CSCc1cc2nc(c1)OCCCOc1cc(F)ccc1-c1cc(ncc1F)N2 [Example 3, 15,19-Difluoro-8-[(methylsulfanyl)methyl]-3,4-dihydro-2H,11H-10,6-(azeno)-12,16-(metheno)-1,5,11,13-benzodioxadiazacyclooctadecine]	81
CS(=O)(=O)Cc1cc2nc(c1)OCCCOc1cc(F)ccc1-c1cc(ncc1F)N2 [Example 8, 15,19-difluoro-8-[(methylsulfonyl)methyl]-3,4-dihydro-2H,11H-10,6-(azeno)-12,16-(metheno)-1,5,11,13-benzodioxadiazacyclooctadecine]	9
CSCc1cc2cc(c1)OCCCOc1cc(F)ccc1-c1nc(ncc1F)N2 [Example 2, 15,19-Difluoro-8-[(methylsulfanyl)methyl]-3,4-dihydro-2H,11H-12,16-(azeno)-10,6-(metheno)-1,5,11,13-benzodioxadiazacyclooctadecine]	167
